Test results as given in ChEMBL document CHEMBL1147896, “Small molecule inhibitors of E. coli primase, a novel bacterial target” (Bioorg Med Chem Lett, 2007).
In brackets after ≈: the same amount, converted by molar mass.

How the values were obtained:
[1] = Inhibition of Escherichia coli primase by scintillation proximity assay
Escherichia coli = test: Antibacterial activity against Escherichia coli; assay type: functional

Structure (SMILES)	IC50 [1] [µM]	MIC (Escherichia coli) [µg/mL]
CN1CCN(c2ncnc3c2oc2ccccc23)CC1	85.1	64 (≈ 239 µM)
CC(C)c1nc2sc3c(NCCN(C)C)ncnc3c2c2c1CCCC2	61	16 (≈ 43.3 µM)
CCN(CC)CCNc1nc(SC)nc2c1sc1nc(C(C)C)c3c(c12)CCC3	36	> 64
CCN(CC)CCNc1nc(SC)nc2c1sc1nc(N3CCOCC3)c3c(c12)CC(C)(C)OC3	45	64 (≈ 124 µM)
Cc1ccc(-c2cn3c4ccccc4n(CCN4CCCCC4)c3n2)cc1	99.5	64 (≈ 179 µM)
COc1ccc(-c2cn3c4ccccc4n(CCN4CCCCC4)c3n2)cc1	162	> 64
c1ccc(-c2cn3c4ccccc4n(CCN4CCCCC4)c3n2)cc1	18.4	64 (≈ 186 µM)
CN1CCN(c2nc(Nc3cccc(O)c3)nc3ccccc23)CC1	50.5	> 64
CN1CCN(c2nc(-c3ccccc3O)nc3ccccc23)CC1	7.2	> 64
CCN1CCN(c2nc(-c3ccncc3)nc3ccccc23)CC1	27.3	> 64
CN(C)CCOc1nc(-c2ccccc2)nc2c1oc1ccccc12	3.4	4 (≈ 12 µM)
CSc1nc(NCCN(C)C)c2sc3nc(CC(C)C)c4c(c3c2n1)CC(C)(C)OC4	79.2	> 64
CCCCc1nc2sc3c(NCCN(C)C)nc(SC)nc3c2c2c1CCC2	103	8 (≈ 19.2 µM)
CN1CCN(c2nc(-c3ccccc3)nc3c2oc2ccccc23)CC1	42.5	> 64
CN1CCN(c2nc(-c3ccc(Cl)cc3)nc3c2oc2ccccc23)CC1	> 200	> 64
CSc1nc(NCCN(C)C)c2sc3nc(C(C)C)c4c(c3c2n1)CCC4	26.6	8 (≈ 19.9 µM)
CCN1CCN(c2nc(SC)nc3c2sc2nc(C(C)C)c4c(c23)CCC4)CC1	> 200	> 64
CCc1nc(N2CCN(CC)CC2)c2oc3ccccc3c2n1	170	> 64
c1ccc2c(c1)oc1c(N3CCN(C4CCCC4)CC3)ncnc12	122	> 64
c1csc(-c2cn3c4ccccc4n(CCN4CCCCC4)c3n2)c1	32.3	64 (≈ 183 µM)
CN(C)CCNc1cc(-c2ccncc2)nc(-c2ccccn2)n1	44.7	> 64
CCN(CC)CCNc1nc(SC)nc2c1sc1nc(C)c3c(c12)CC(C)(C)OC3	16.9	32 (≈ 71.8 µM)
OCCN1CCN(c2ncnc3c2oc2ccccc23)CC1	138	64 (≈ 215 µM)
CSc1nc(NCCN(C)C)c2sc3nc(CC(C)C)c4c(c3c2n1)CCC4	22	4 (≈ 9.62 µM)
CSc1nc(NCCN2CCOCC2)c2sc3nc(C(C)C)c4c(c3c2n1)CCC4	> 200	> 64
